Experimental data as given in US6936585B2, “Corticotropin releasing factor 2 receptor agonists” (priority 2002, dated 2005).
Ends that are not written are not given here. Peptide text beside a SMILES is read from it.

Columns and labels:
CRF2R = target: T1, CRF2R (Homo sapiens, UniProt Q13324); test: CRF2R agonist activation (EC50 / Emax), called comparative CRF binding; format: cell-based; details: for EC50: read-out: CRF2R EC50; for Emax: read-out: CRF2R Emax
T1 sequence (Q13324 1-411): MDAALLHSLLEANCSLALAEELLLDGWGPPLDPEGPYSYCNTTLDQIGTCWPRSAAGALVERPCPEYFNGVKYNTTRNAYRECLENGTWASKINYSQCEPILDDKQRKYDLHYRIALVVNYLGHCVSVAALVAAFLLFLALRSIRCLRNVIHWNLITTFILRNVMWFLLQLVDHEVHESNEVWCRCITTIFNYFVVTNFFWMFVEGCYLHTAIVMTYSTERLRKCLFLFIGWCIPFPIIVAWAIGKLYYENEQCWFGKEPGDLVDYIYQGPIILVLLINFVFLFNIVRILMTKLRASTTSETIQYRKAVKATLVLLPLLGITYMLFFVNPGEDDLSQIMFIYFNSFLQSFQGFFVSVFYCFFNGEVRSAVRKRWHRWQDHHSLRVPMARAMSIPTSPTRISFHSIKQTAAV
Procedure, shortened: (§1)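 Agonism is scored from cAMP rise, assayed in lysates or through CRE-driven reporter expression, after peptide contact with cells bearing human CRF2R or CRF1R, compared against vehicle-treated cells.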

CRF1R = target: T2, CRF1R (Homo sapiens, UniProt P34998); test: CRF1R agonist activation (EC50 / Emax), called comparative CRF binding; format: cell-based; details: for EC50: read-out: CRF1R EC50; for Emax: read-out: CRF1R Emax
T2 sequence (P34998 24-415): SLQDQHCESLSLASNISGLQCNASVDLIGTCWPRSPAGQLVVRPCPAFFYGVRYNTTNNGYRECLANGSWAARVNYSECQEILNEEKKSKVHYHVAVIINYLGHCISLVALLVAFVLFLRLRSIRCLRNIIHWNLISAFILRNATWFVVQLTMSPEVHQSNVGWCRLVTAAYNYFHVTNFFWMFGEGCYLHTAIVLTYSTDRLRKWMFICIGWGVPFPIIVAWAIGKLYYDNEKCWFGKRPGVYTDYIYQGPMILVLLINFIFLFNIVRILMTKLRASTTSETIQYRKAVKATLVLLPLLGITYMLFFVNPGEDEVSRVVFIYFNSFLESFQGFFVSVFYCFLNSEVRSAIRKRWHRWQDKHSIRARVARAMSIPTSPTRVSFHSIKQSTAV
Procedure, shortened: as §1

Molecule | EC50 (CRF2R) [nM] | Emax (CRF2R) [%] | EC50 (CRF1R) [nM] | Emax (CRF1R) [%]
NDDPPISIDLPFLLLRNMIEMARIENEREQAGLNAKYLAEV-NH2 [compound 260] | ≥ 100 | 89.3 | 834 | 89.7
CC[C@H](C)[C@H](N)C(=O)N[C@H](C(=O)N[C@@H](CC(C)C)C(=O)N[C@@H](CO)C(=O)N[C@@H](CC(C)C)C(=O)N[C@@H](CC(=O)O)C(=O)N[C@H](C(=O)N1CCC[C@H]1C(=O)N[C@H](C(=O)NCC(=O)N[C@@H](CC(C)C)C(=O)N[C@@H](CC(C)C)C(=O)N[C@@H](CCC(N)=O)C(=O)N[C@H](C(=O)N[C@@H](CC(C)C)C(=O)N[C@@H](CC(C)C)C(=O)N[C@@H](CCC(=O)O)C(=O)N[C@@H](CCC(N)=O)C(=O)N[C@@H](CCC(=O)O)C(=O)N[C@@H](CCCNC(=N)N)C(=O)N[C@@H](CCC(N)=O)C(=O)N[C@@H](CCC(=O)O)C(=O)N[C@@H](C)C(=O)N[C@@H](C)C(=O)N[C@@H](CCCNC(=N)N)C(=O)N[C@@H](CCC(=O)O)C(=O)N[C@@H](CCC(N)=O)C(=O)N[C@@H](C)C(=O)N[C@H](C(=O)N[C@H](C(=O)N[C@@H](CC(N)=O)C(=O)N[C@@H](C)C(=O)N[C@@H](CCCNC(=N)N)C(=O)N[C@H](C(=O)N[C@@H](CC(C)C)C(=O)N[C@@H](C)C(=O)N[C@@H](CCCNC(=N)N)C(=O)N[C@H](C(N)=O)C(C)C)[C@@H](C)CC)[C@@H](C)O)[C@@H](C)O)[C@@H](C)CC)[C@@H](C)CC)C(C)C)C(C)C [compound 118] (H-IVLSLDVPIGLLQILLEQERQEAAREQATTNARILARV-NH2; N-terminus assumed) |  | 100 |  | 5
CC[C@H](C)[C@H](NC(=O)[C@H](CC(=O)O)NC(=O)[C@H](CC(C)C)NC(=O)[C@H](CC(C)C)NC(=O)[C@H](CCCCN)NC(=O)[C@H](CCCNC(=N)N)NC(=O)[C@H](CC(N)=O)NC(=O)[C@H](CO)NC(=O)[C@H](Cc1c[nH]cn1)NC(=O)[C@H](C)NC(=O)[C@H](CCC(N)=O)NC(=O)[C@H](CCC(N)=O)NC(=O)[C@H](C)NC(=O)[C@H](CC(C)C)NC(=O)[C@H](CCC(N)=O)NC(=O)[C@H](CC(=O)O)NC(=O)[C@H](C)NC(=O)[C@H](CCCCN)NC(=O)[C@@H](NC(=O)[C@H](CCSC)NC(=O)[C@H](CCC(=O)O)NC(=O)[C@H](CC(C)C)NC(=O)[C@@H](NC(=O)[C@H](CCC(=O)O)NC(=O)[C@H](CCCNC(=N)N)NC(=O)[C@H](CC(C)C)NC(=O)[C@H](CC(C)C)NC(=O)[C@H](Cc1c[nH]cn1)NC(=O)[C@H](Cc1ccccc1)NC(=O)[C@@H]1CCCN1C(=O)[C@H](CC(C)C)NC(=O)[C@H](CC(=O)O)NC(=O)[C@H](CC(C)C)NC(=O)[C@H](CO)NC(=O)[C@@H](NC(=O)[C@@H]1CCCN1C(=O)[C@@H]1CCCN1C(=O)[C@H](CCC(=O)O)NC(=O)[C@H](CCC(N)=O)NC(=O)[C@@H](N)CO)[C@@H](C)CC)C(C)C)[C@@H](C)O)C(=O)N[C@@H](C)C(N)=O [compound 104] |  | 4.5 |  | 11.1
CC[C@H](C)[C@H](NC(=O)[C@H](C)NC(=O)[C@H](CC(N)=O)NC(=O)[C@H](CCC(N)=O)NC(=O)[C@H](CCC(=O)O)NC(=O)[C@H](C)NC(=O)[C@H](CCCNC(=N)N)NC(=O)[C@H](CCC(=O)O)NC(=O)[C@H](CCCNC(=N)N)NC(=O)[C@H](CCC(N)=O)NC(=O)[C@H](CO)NC(=O)[C@H](CCC(N)=O)NC(=O)[C@@H](NC(=O)[C@H](CCCNC(=N)N)NC(=O)[C@H](C)NC(=O)[C@H](CC(C)C)NC(=O)[C@H](CCC(=O)O)NC(=O)[C@H](CC(C)C)NC(=O)[C@H](CC(C)C)NC(=O)[C@@H](NC(=O)[C@H](CCCNC(=N)N)NC(=O)[C@H](CC(C)C)NC(=O)[C@H](CC(C)C)NC(=O)[C@H](Cc1ccccc1)NC(=O)[C@H](CC(C)C)NC(=O)[C@@H]1CCCN1C(=O)[C@H](CC(C)C)NC(=O)[C@H](CC(=O)O)NC(=O)[C@@H](NC(=O)[C@H](CO)NC(=O)[C@H](CC(C)C)NC(=O)[C@H](CO)NC(=O)[C@@H]1CCCN1C(=O)[C@H](CC(N)=O)NC(=O)[C@@H](N)CC(=O)O)[C@@H](C)CC)[C@@H](C)O)[C@@H](C)O)C(=O)N[C@H](C(=O)N[C@@H](Cc1ccccc1)C(=O)N[C@@H](C)C(=O)N[C@@H](CO)C(=O)N[C@H](C(N)=O)C(C)C)[C@@H](C)CC [compound 178] (H-DNPSLSIDLPLFLLRTLLELARTQSQRERAEQNAIIFASV-NH2; N-terminus assumed) |  | 96.5 |  | 55.7
CC[C@H](C)[C@H](N)C(=O)N[C@H](C(=O)N[C@@H](CC(C)C)C(=O)N[C@@H](CO)C(=O)N[C@@H](CC(C)C)C(=O)N[C@@H](CC(=O)O)C(=O)N[C@H](C(=O)N1CCC[C@H]1C(=O)N[C@H](C(=O)NCC(=O)N[C@@H](CC(C)C)C(=O)N[C@@H](CC(C)C)C(=O)N[C@@H](CCC(N)=O)C(=O)N[C@H](C(=O)N[C@@H](CC(C)C)C(=O)N[C@@H](CC(C)C)C(=O)N[C@@H](CCC(=O)O)C(=O)N[C@@H](CCC(N)=O)C(=O)N[C@@H](CCC(=O)O)C(=O)N[C@@H](CCCNC(=N)N)C(=O)N[C@@H](C)C(=O)N[C@@H](CCC(=O)O)C(=O)N[C@@H](C)C(=O)N[C@@H](C)C(=O)N[C@@H](CCCNC(=N)N)C(=O)N[C@@H](CCC(=O)O)C(=O)N[C@@H](CCC(N)=O)C(=O)N[C@@H](C)C(=O)N[C@H](C(=O)N[C@H](C(=O)N[C@@H](CC(N)=O)C(=O)N[C@@H](C)C(=O)N[C@@H](CCCNC(=N)N)C(=O)N[C@H](C(=O)N[C@@H](CC(C)C)C(=O)N[C@@H](C)C(=O)N[C@@H](CCCNC(=N)N)C(=O)N[C@H](C(N)=O)C(C)C)[C@@H](C)CC)[C@@H](C)O)[C@@H](C)O)[C@@H](C)CC)[C@@H](C)CC)C(C)C)C(C)C [compound 113] (H-IVLSLDVPIGLLQILLEQERAEAAREQATTNARILARV-NH2; N-terminus assumed) | 11.3 | 98 | > 100 | 4
SQEPPISLDLPFYLLREVLEMTKADQLAQQAHSNRKLLDIA-NH2 [compound 96] |  | 12.5 |  | 16.3
CC[C@H](C)[C@H](NC(=O)[C@H](CCC(N)=O)NC(=O)[C@H](C)NC(=O)[C@H](CC(N)=O)NC(=O)[C@H](CCC(N)=O)NC(=O)[C@H](CCC(=O)O)NC(=O)[C@H](C)NC(=O)[C@H](CCCNC(=N)N)NC(=O)[C@H](CCC(=O)O)NC(=O)[C@H](CCCNC(=N)N)NC(=O)[C@H](CCC(N)=O)NC(=O)[C@H](CO)NC(=O)[C@H](CCC(N)=O)NC(=O)[C@@H](NC(=O)[C@H](CCCCN)NC(=O)[C@H](CCC(=O)O)NC(=O)[C@H](CC(C)C)NC(=O)[C@H](CCC(=O)O)NC(=O)[C@H](CC(C)C)NC(=O)[C@H](CC(C)C)NC(=O)[C@@H](NC(=O)[C@H](CCCNC(=N)N)NC(=O)[C@H](CC(C)C)NC(=O)[C@H](CC(C)C)NC(=O)[C@H](CC(C)C)NC(=O)[C@H](CC(C)C)NC(=O)[C@@H]1CCCN1C(=O)[C@H](CC(C)C)NC(=O)[C@H](CC(=O)O)NC(=O)[C@@H](NC(=O)[C@H](CO)NC(=O)[C@H](CC(C)C)NC(=O)[C@H](CO)NC(=O)[C@@H]1CCCN1C(=O)[C@H](CC(N)=O)NC(=O)[C@@H](N)CC(=O)O)[C@@H](C)CC)[C@@H](C)O)[C@@H](C)O)C(=O)N[C@@H](Cc1ccccc1)C(=O)N[C@@H](C)C(=O)N[C@@H](CCC(N)=O)C(=O)N[C@H](C(N)=O)C(C)C [compound 327] (H-DNPSLSIDLPLLLLRTLLELEKTQSQRERAEQNAQIFAQV-NH2; N-terminus assumed) |  | 100 |  | 36.5
CC[C@H](C)[C@H](NC(=O)[C@H](CCCNC(=N)N)NC(=O)[C@H](C)NC(=O)[C@H](CC(N)=O)NC(=O)[C@H](CCC(N)=O)NC(=O)[C@H](CCC(=O)O)NC(=O)[C@H](C)NC(=O)[C@H](CCCNC(=N)N)NC(=O)[C@H](CCC(=O)O)NC(=O)[C@H](CCCNC(=N)N)NC(=O)[C@H](CCC(N)=O)NC(=O)[C@H](CO)NC(=O)[C@H](CCC(N)=O)NC(=O)[C@@H](NC(=O)[C@H](CCCCN)NC(=O)[C@H](CCC(=O)O)NC(=O)[C@H](CC(C)C)NC(=O)[C@H](CCC(=O)O)NC(=O)[C@H](CC(C)C)NC(=O)[C@H](CC(C)C)NC(=O)[C@@H](NC(=O)[C@H](CCCNC(=N)N)NC(=O)[C@H](CC(C)C)NC(=O)[C@H](CC(C)C)NC(=O)[C@H](Cc1ccc(O)cc1)NC(=O)[C@H](CC(C)C)NC(=O)[C@@H]1CCCN1C(=O)[C@@H](NC(=O)[C@H](CC(=O)O)NC(=O)[C@@H](NC(=O)[C@H](CO)NC(=O)[C@H](CC(C)C)NC(=O)[C@H](CO)NC(=O)[C@@H]1CCCN1C(=O)[C@H](CC(N)=O)NC(=O)[C@@H](N)CC(=O)O)[C@@H](C)CC)C(C)C)[C@@H](C)O)[C@@H](C)O)C(=O)N[C@@H](Cc1ccccc1)C(=O)N[C@@H](C)C(=O)N[C@@H](CCCNC(=N)N)C(=O)N[C@H](C(N)=O)C(C)C [compound 387] (H-DNPSLSIDVPLYLLRTLLELEKTQSQRERAEQNARIFARV-NH2; N-terminus assumed) | 17.8 | 100 | ≥ 1000 | 50.1
